Numbers after ± are expanded uncertainties.
Assay: xn = mol fraction of the nth substance listed
Details: 100 kPa, Liquid; for viscosity: Falling or rolling sphere viscometry; for mass density: Vibrating tube method

CCCCC1CCCCC1 [butylcyclohexane] + CCCCCCCCCCCC
Details	mass density [kg/m3]	viscosity [mPa·s]
293.15 K, x2 = 0	799.34 ± 1	1.305 ± 0.028
293.15 K, x2 = 0.1017	792.77 ± 1	1.319 ± 0.028
293.15 K, x2 = 0.1996	786.82 ± 1	1.334 ± 0.028
293.15 K, x2 = 0.2951	781.36 ± 1	1.348 ± 0.029
293.15 K, x2 = 0.4221	774.55 ± 1	1.369 ± 0.029
293.15 K, x2 = 0.5126	769.99 ± 1	1.384 ± 0.029
293.15 K, x2 = 0.6256	764.59 ± 1	1.404 ± 0.03
293.15 K, x2 = 0.7002	761.2 ± 1	1.418 ± 0.03
293.15 K, x2 = 0.7989	756.92 ± 1	1.437 ± 0.031
293.15 K, x2 = 0.9012	752.7 ± 1	1.457 ± 0.031
298.15 K, x2 = 0	795.59 ± 1	1.202 ± 0.026
298.15 K, x2 = 0.1017	789.05 ± 1	1.215 ± 0.026
298.15 K, x2 = 0.1996	783.12 ± 1	1.228 ± 0.026
298.15 K, x2 = 0.2951	777.68 ± 1	1.241 ± 0.026
298.15 K, x2 = 0.4221	770.9 ± 1	1.258 ± 0.027
298.15 K, x2 = 0.5126	766.35 ± 1	1.272 ± 0.027
298.15 K, x2 = 0.6256	760.96 ± 1	1.289 ± 0.027
298.15 K, x2 = 0.7002	757.57 ± 1	1.3 ± 0.028
298.15 K, x2 = 0.7989	753.3 ± 1	1.318 ± 0.028
298.15 K, x2 = 0.9012	749.09 ± 1	1.335 ± 0.028
303.15 K, x2 = 0	791.84 ± 1	1.112 ± 0.024
303.15 K, x2 = 0.1017	785.32 ± 1	1.123 ± 0.024
303.15 K, x2 = 0.1996	779.41 ± 1	1.135 ± 0.024
303.15 K, x2 = 0.2951	773.99 ± 1	1.146 ± 0.024
303.15 K, x2 = 0.4221	767.22 ± 1	1.162 ± 0.025
303.15 K, x2 = 0.5126	762.68 ± 1	1.173 ± 0.025
303.15 K, x2 = 0.6256	757.3 ± 1	1.187 ± 0.025
303.15 K, x2 = 0.7002	753.92 ± 1	1.197 ± 0.025
303.15 K, x2 = 0.7989	749.66 ± 1	1.211 ± 0.026
303.15 K, x2 = 0.9012	745.45 ± 1	1.226 ± 0.026
308.15 K, x2 = 0	788.07 ± 1	1.033 ± 0.022
308.15 K, x2 = 0.1017	781.58 ± 1	1.043 ± 0.022
308.15 K, x2 = 0.1996	775.69 ± 1	1.053 ± 0.022
308.15 K, x2 = 0.2951	770.28 ± 1	1.063 ± 0.023
308.15 K, x2 = 0.4221	763.53 ± 1	1.076 ± 0.023
308.15 K, x2 = 0.5126	759.01 ± 1	1.086 ± 0.023
308.15 K, x2 = 0.6256	753.64 ± 1	1.1 ± 0.023
308.15 K, x2 = 0.7002	750.27 ± 1	1.108 ± 0.024
308.15 K, x2 = 0.7989	746.01 ± 1	1.122 ± 0.024
308.15 K, x2 = 0.9012	741.81 ± 1	1.137 ± 0.024
313.15 K, x2 = 0	784.3 ± 1	0.963 ± 0.021
313.15 K, x2 = 0.1017	777.82 ± 1	0.971 ± 0.021
313.15 K, x2 = 0.1996	771.96 ± 1	0.98 ± 0.021
313.15 K, x2 = 0.2951	766.57 ± 1	0.989 ± 0.021
313.15 K, x2 = 0.4221	759.84 ± 1	1.001 ± 0.021
313.15 K, x2 = 0.5126	755.32 ± 1	1.009 ± 0.021
313.15 K, x2 = 0.6256	749.97 ± 1	1.021 ± 0.022
313.15 K, x2 = 0.7002	746.6 ± 1	1.029 ± 0.022
313.15 K, x2 = 0.7989	742.35 ± 1	1.041 ± 0.022
313.15 K, x2 = 0.9012	738.16 ± 1	1.054 ± 0.022
318.15 K, x2 = 0	780.52 ± 1	0.901 ± 0.019
318.15 K, x2 = 0.1017	774.07 ± 1	0.908 ± 0.019
318.15 K, x2 = 0.1996	768.22 ± 1	0.915 ± 0.019
318.15 K, x2 = 0.2951	762.85 ± 1	0.923 ± 0.02
318.15 K, x2 = 0.4221	756.14 ± 1	0.934 ± 0.02
318.15 K, x2 = 0.5126	751.63 ± 1	0.942 ± 0.02
318.15 K, x2 = 0.6256	746.29 ± 1	0.952 ± 0.02
318.15 K, x2 = 0.7002	742.93 ± 1	0.959 ± 0.02
318.15 K, x2 = 0.7989	738.69 ± 1	0.969 ± 0.021
318.15 K, x2 = 0.9012	734.5 ± 1	0.98 ± 0.021
323.15 K, x2 = 0	776.74 ± 1	0.844 ± 0.018
323.15 K, x2 = 0.1017	770.3 ± 1	0.851 ± 0.018
323.15 K, x2 = 0.1996	764.47 ± 1	0.858 ± 0.018
323.15 K, x2 = 0.2951	759.12 ± 1	0.864 ± 0.018
323.15 K, x2 = 0.4221	752.42 ± 1	0.874 ± 0.019
323.15 K, x2 = 0.5126	747.93 ± 1	0.881 ± 0.019
323.15 K, x2 = 0.6256	742.6 ± 1	0.89 ± 0.019
323.15 K, x2 = 0.7002	739.25 ± 1	0.896 ± 0.019
323.15 K, x2 = 0.7989	735.02 ± 1	0.905 ± 0.019
323.15 K, x2 = 0.9012	730.84 ± 1	0.915 ± 0.019
328.15 K, x2 = 0	772.93 ± 1	0.794 ± 0.017
328.15 K, x2 = 0.1017	766.52 ± 1	0.8 ± 0.017
328.15 K, x2 = 0.1996	760.71 ± 1	0.806 ± 0.017
328.15 K, x2 = 0.2951	755.37 ± 1	0.812 ± 0.017
328.15 K, x2 = 0.4221	748.7 ± 1	0.821 ± 0.017
328.15 K, x2 = 0.5126	744.22 ± 1	0.827 ± 0.018
328.15 K, x2 = 0.6256	738.9 ± 1	0.834 ± 0.018
328.15 K, x2 = 0.7002	735.56 ± 1	0.84 ± 0.018
328.15 K, x2 = 0.7989	731.33 ± 1	0.848 ± 0.018
328.15 K, x2 = 0.9012	727.16 ± 1	0.858 ± 0.018
333.15 K, x2 = 0	769.13 ± 1	0.749 ± 0.016
333.15 K, x2 = 0.1017	762.73 ± 1	0.754 ± 0.016
333.15 K, x2 = 0.1996	756.94 ± 1	0.759 ± 0.016
333.15 K, x2 = 0.2951	751.62 ± 1	0.763 ± 0.016
333.15 K, x2 = 0.4221	744.96 ± 1	0.771 ± 0.016
333.15 K, x2 = 0.5126	740.49 ± 1	0.775 ± 0.017
333.15 K, x2 = 0.6256	735.19 ± 1	0.781 ± 0.017
333.15 K, x2 = 0.7002	731.86 ± 1	0.787 ± 0.017
333.15 K, x2 = 0.7989	727.64 ± 1	0.794 ± 0.017
333.15 K, x2 = 0.9012	723.48 ± 1	0.803 ± 0.017
338.15 K, x2 = 0	765.3 ± 1	0.708 ± 0.015
338.15 K, x2 = 0.1017	758.93 ± 1	0.712 ± 0.015
338.15 K, x2 = 0.1996	753.16 ± 1	0.716 ± 0.015
338.15 K, x2 = 0.2951	747.85 ± 1	0.721 ± 0.015
338.15 K, x2 = 0.4221	741.21 ± 1	0.728 ± 0.016
338.15 K, x2 = 0.5126	736.75 ± 1	0.733 ± 0.016
338.15 K, x2 = 0.6256	731.47 ± 1	0.738 ± 0.016
338.15 K, x2 = 0.7002	728.14 ± 1	0.742 ± 0.016
338.15 K, x2 = 0.7989	723.94 ± 1	0.749 ± 0.016
338.15 K, x2 = 0.9012	719.78 ± 1	0.756 ± 0.016
343.15 K, x2 = 0	761.47 ± 1	0.67 ± 0.014
343.15 K, x2 = 0.1017	755.12 ± 1	0.674 ± 0.014
343.15 K, x2 = 0.1996	749.37 ± 1	0.678 ± 0.014
343.15 K, x2 = 0.2951	744.07 ± 1	0.682 ± 0.015
343.15 K, x2 = 0.4221	737.45 ± 1	0.687 ± 0.015
343.15 K, x2 = 0.5126	733 ± 1	0.691 ± 0.015
343.15 K, x2 = 0.6256	727.73 ± 1	0.696 ± 0.015
343.15 K, x2 = 0.7002	724.41 ± 1	0.701 ± 0.015
343.15 K, x2 = 0.7989	720.22 ± 1	0.708 ± 0.015
343.15 K, x2 = 0.9012	716.08 ± 1	0.715 ± 0.015

— the NIST ThermoML archive (doi:10.1021/acs.jced.7b00201)
